Experimental data: patent publication US9173884B2, “Inhibitors of phosphodiesterase 11 (PDE11)” (TRUSTEES OF BOSTON COLLEGE, priority 2011, dated 2015)
One block for each compound: values may come before it.

How the values were obtained:
H295R cells [1] = assay: cAMP assay in H295R adrenocortical cells; assay type: cell-based, human; conditions: 20 μM, 2 h, absence or presence of 10 μM forskolin
Experimental: (§1) Human NCI-H295R cells were maintained as described (33). HeLa cells were maintained in DMEM with 10% FBS. 90% confluent cells in 12-well dishes were incubated in serum-starved media for 1 h, then in 0.5 ml serum-starved media with 20 µM compounds or 0.2% DMSO for 2 h in the absence or presence of 10 μM forskolin (Sigma Aldrich). Media was collected and cAMP levels were measured as described (33), using a cAMP ELISA kit (Enzo). cAMP levels were normalized to protein content measured using a BCA Protein Assay Kit (Pierce). Immunoblot analysis of protein lysates was performed as described (34), using phospho-CREB(9198), Akt(4685), or CREB(9197) primary antibodies (Cell Signaling Technology) and goat anti-rabbit IgG-HRP secondary antibody (sc-2030, Santa Cruz).

H295R cells [2] = assay: ATF-1 phosphorylation immunoblot in H295R cells; assay type: cell-based, human
Experimental: as §1

HeLa cells [3] = assay: cAMP assay in HeLa cells; assay type: cell-based; conditions: as for H295R cells (20 μM)
Experimental: as §1

HeLa cells [4] = assay: CREB phosphorylation immunoblot in HeLa cells; assay type: cell-based; conditions: as for H295R cells (20 μM)
Experimental: as §1

H295R cells [5] = assay: Cortisol assay in H295R cells; assay type: cell-based, human; conditions: 20 μM, 24 h, forskolin
Experimental: H295R cells were treated with compounds as described in the cAMP assays, for 24 h. Media was collected and cortisol content was quantified using a Cortisol EIA Kit (Oxford Biomedical Research). Cortisol levels were normalized to protein concentrations in cell extracts, as described above.

PDE10A1 [6] = biological target: T1, PDE10A1 (Homo sapiens (Human), UniProt Q9Y233); assay: In vitro enzyme assay, PDE10; conditions: read-out: IC50 PDE10; PDE10A, 30 nM cAMP
PDE5A1 = PDE5A1 (Homo sapiens (Human), UniProt O76074); assay: In vitro enzyme assay, PDE5; assay type: biochemical; conditions: PDE5A, 500 nM cGMP
PDE7A = PDE7A (Homo sapiens (Human), UniProt Q13946); assay: In vitro enzyme assay, PDE7; assay type: biochemical; conditions: 15 nM cAMP
PDE6C = PDE6C (Homo sapiens (Human), UniProt P51160); assay: In vitro enzyme assay, PDE6; assay type: biochemical; conditions: […] cGMP
REC-1 cells = assay: Apoptosis of REC-1 B cell leukemia cell line; assay type: cell-based; conditions: for effect on apoptosis, in words: REC-1
normal T cells = assay: Apoptosis of normal T cells; assay type: cell-based; conditions: for cell viability of normal T cells: with or without rolipram
JVM-2 cells = assay: Apoptosis of JVM-2 B cell leukemia cell line; assay type: cell-based; conditions: for effect on apoptosis, in words: JVM-2
[7] = test system: chronic lymphocytic leukemia cells from a first leukemia patient; assay: Apoptosis of chronic lymphocytic leukemia cells, first patient; assay type: cell-based, human; parameters: % apoptosis: dose or concentration left out as unconfirmed; conditions: for effect on apoptosis, in words: first patient, high background apoptosis
Text: (§2) In collaboration with other researchers, the effect of different PDE inhibitors on chronic lymphocytic leukemia cells was investigated. The lymphocytic leukemia cells were obtained from individual patients and cannot be maintained in cell culture.

[8] = test system: chronic lymphocytic leukemia cells from a second leukemia patient; assay: Apoptosis of chronic lymphocytic leukemia cells, second patient (JM168); assay type: cell-based, human
Text: as §2

[9] = test system: chronic lymphocytic leukemia cells from a third leukemia patient; assay: Apoptosis of chronic lymphocytic leukemia cells, third patient (JM167); assay type: cell-based, human
Text: as §2

PDE10A1 [10] = biological target: T1, PDE10A1; assay: biochemical
human PDE11A4 = human PDE11A4 (Homo sapiens (Human), UniProt Q9HCR9); assay: biochemical
[11] = compound 20 μM plus Rolipram (20 μM)

T1 sequence (Q9Y233 other isoform, or with tags, fused parts or gaps): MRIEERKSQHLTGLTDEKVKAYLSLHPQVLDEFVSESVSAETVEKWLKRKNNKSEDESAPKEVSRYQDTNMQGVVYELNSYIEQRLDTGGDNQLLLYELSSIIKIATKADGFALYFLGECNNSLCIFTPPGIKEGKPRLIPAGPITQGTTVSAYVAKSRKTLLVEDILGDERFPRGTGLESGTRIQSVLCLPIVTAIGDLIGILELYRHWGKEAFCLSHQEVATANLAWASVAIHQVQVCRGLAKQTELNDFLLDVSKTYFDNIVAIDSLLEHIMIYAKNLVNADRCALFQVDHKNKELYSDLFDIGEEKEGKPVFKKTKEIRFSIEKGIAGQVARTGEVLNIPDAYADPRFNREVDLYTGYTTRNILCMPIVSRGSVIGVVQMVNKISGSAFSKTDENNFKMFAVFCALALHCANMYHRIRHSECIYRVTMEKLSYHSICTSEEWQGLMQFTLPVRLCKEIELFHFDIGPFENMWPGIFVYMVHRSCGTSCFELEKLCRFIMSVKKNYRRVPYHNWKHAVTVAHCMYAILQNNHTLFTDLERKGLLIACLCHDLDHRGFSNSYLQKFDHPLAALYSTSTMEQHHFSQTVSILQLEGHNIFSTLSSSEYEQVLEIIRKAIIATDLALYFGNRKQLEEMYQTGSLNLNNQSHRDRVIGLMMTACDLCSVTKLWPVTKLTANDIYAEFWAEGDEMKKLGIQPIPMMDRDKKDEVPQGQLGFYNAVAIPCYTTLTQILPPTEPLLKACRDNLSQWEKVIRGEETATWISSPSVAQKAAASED
Chain of PDE6C (P51160 whole entry): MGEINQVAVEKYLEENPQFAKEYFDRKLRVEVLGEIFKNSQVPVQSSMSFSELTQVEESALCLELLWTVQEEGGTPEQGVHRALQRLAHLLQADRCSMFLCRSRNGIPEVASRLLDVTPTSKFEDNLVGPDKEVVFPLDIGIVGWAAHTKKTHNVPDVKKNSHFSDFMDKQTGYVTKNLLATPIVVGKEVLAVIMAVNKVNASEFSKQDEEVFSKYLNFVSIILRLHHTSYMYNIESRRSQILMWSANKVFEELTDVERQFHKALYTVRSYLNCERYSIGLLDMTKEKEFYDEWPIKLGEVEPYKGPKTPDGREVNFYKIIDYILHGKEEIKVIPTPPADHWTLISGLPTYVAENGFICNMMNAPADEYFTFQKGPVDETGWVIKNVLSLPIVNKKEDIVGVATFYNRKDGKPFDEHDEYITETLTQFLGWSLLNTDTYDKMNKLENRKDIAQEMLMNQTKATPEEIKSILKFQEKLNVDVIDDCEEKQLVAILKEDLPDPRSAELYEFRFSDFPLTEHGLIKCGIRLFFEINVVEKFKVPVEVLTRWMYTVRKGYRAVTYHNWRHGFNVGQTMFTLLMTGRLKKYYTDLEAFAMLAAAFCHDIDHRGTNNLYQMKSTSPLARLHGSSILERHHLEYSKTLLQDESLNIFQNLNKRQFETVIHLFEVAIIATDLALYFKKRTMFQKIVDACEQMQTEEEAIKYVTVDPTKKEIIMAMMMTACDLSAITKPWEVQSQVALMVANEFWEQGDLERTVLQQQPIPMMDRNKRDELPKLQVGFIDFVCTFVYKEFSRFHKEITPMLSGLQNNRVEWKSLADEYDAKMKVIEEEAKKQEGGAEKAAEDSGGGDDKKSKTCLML
Chain of PDE7A (Q13946 whole entry): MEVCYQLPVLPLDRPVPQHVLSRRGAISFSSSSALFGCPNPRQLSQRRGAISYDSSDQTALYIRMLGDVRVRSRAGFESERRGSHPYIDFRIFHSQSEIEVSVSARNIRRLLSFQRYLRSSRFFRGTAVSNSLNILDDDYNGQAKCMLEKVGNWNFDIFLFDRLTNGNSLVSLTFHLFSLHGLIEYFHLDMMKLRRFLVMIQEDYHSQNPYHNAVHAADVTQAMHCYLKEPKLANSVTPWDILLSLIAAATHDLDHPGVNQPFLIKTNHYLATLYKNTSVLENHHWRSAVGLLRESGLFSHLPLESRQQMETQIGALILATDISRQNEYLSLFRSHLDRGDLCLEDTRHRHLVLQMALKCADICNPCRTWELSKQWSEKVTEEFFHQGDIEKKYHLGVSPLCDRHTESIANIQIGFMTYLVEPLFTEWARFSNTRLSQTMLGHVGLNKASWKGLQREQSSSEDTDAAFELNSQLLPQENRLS
Chain of human PDE11A4 (Q9HCR9 whole entry): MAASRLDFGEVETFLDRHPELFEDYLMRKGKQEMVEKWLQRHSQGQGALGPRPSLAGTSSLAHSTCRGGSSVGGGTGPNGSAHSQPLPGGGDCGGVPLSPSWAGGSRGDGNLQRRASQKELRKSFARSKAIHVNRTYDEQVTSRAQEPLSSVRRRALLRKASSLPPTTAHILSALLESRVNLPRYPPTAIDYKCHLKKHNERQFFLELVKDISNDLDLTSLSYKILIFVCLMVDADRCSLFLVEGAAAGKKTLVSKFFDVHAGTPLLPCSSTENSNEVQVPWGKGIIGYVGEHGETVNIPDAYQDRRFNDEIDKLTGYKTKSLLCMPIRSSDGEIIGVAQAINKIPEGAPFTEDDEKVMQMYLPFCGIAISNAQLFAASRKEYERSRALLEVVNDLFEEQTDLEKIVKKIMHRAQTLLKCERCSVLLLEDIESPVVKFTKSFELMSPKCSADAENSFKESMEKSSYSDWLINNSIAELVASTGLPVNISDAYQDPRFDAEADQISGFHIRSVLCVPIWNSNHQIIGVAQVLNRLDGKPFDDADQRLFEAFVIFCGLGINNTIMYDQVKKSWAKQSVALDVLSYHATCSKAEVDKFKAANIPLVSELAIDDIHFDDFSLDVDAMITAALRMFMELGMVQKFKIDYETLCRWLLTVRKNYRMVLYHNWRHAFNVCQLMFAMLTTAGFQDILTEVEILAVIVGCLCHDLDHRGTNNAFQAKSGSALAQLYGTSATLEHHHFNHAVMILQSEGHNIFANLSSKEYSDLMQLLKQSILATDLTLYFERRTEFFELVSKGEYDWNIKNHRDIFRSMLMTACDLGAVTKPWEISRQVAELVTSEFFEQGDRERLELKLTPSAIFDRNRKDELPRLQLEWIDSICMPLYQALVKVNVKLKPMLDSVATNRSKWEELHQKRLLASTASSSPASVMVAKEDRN

Compound: CCCSc1nc2c(c(=O)n1-c1ccccc1)SCC2 [BC11-38]
- cAMP levels in H295R cells (H295R cells [1]): significantly increased
- phosphorylation of ATF1 (H295R cells [2]): PDE11A-specific increase
- cAMP levels in HeLa cells (HeLa cells [3]): do not increase
- CREB phosphorylation in HeLa cells (HeLa cells [4]): do not increase
- cortisol production by H295R cells (H295R cells [5]): significantly increased

- IC50 (PDE10A1 [6]): 35 µM
- IC50 (PDE5A1): 43 µM
- IC50 (PDE7A): 43 µM
- IC50 (PDE6C): 25 µM
Compound: CCN(CC)C(=O)c1cc(-c2cccs2)nc2c1c(C)nn2-c1ccccc1C [BC11-15]

Compound: Cn1c(NC(=O)c2ccccc2NC(=O)c2ccccc2)nc2ccccc21 [BC11-4]
- Apoptosis (%) REC-1 Cells (B cell leukemia) (REC-1 cells; 40 μM): 100%
- effect on apoptosis, in words (REC-1 cells): increased apoptosis
- % apoptosis of normal T cells (normal T cells; compound 20 μM alone (DMSO)): 14.3%
- % apoptosis of normal T cells (normal T cells; [11]): 13.9%
- cell viability of normal T cells (normal T cells): did not affect cell viability
- Apoptosis (%) JVM-2 Cells (B cell leukemia) (JVM-2 cells; 40 μM): 32.3%
- effect on apoptosis, in words (JVM-2 cells): increased apoptosis
- % apoptosis ([7]; compound): 66.9%
- % apoptosis ([7]; compound alone (DMSO)): 70.1%
- effect on apoptosis, in words [7]: increase in apoptosis
- % apoptosis ([8]; BC11-4 0.1 μM, Roli 0 μM): 6.65%
- % apoptosis ([8]; BC11-4 0.1 μM, Roli 0.2 μM): 10.4%
- % apoptosis ([8]; BC11-4 0.1 μM, Roli 2.0 μM): 21.2%
- % apoptosis ([8]; BC11-4 0.1 μM, Roli 20 μM): 28.8%
- % apoptosis ([8]; BC11-4 1.0 μM, Roli 0 μM): 4.71%
- % apoptosis ([8]; BC11-4 1.0 μM, Roli 0.2 μM): 10.8%
- % apoptosis ([8]; BC11-4 1.0 μM, Roli 2.0 μM): 20.8%
- % apoptosis ([8]; BC11-4 1.0 μM, Roli 20 μM): 29.6%
- % apoptosis ([8]; BC11-4 10.0 μM, Roli 0 μM): 5.78%
- % apoptosis ([8]; BC11-4 10.0 μM, Roli 0.2 μM): 4.93%
- % apoptosis ([8]; BC11-4 10.0 μM, Roli 2.0 μM): 6.72%
- % apoptosis ([8]; BC11-4 10.0 μM, Roli 20 μM): 15.8%
- response of cells (apoptosis), in words ([8]; second patient): did not respond

Compound: COc1ccc(C2CNC(=O)C2)cc1OC1CCCC1 (stereo not drawn) [Rolipram, rolipram, reference compound]
- % apoptosis ([9]; Roli 0.2 μM, BC11-8 0 μM): 13.2%
- % apoptosis ([9]; Roli 2.0 μM, BC11-8 0 μM): 23.5%
- % apoptosis ([9]; Roli 20 μM, BC11-8 0 μM): 29.9%
- Apoptosis (%) REC-1 Cells (B cell leukemia) (REC-1 cells; 20 μM): 56.7%
- effect on apoptosis, in words (REC-1 cells): not affected
- % apoptosis of normal T cells (normal T cells; compound 20 μM alone (DMSO)): 9.4%
- Apoptosis (%) JVM-2 Cells (B cell leukemia) (JVM-2 cells; 20 μM): 18.5%
- effect on apoptosis, in words (JVM-2 cells): not affected
- % apoptosis ([7]; compound alone (DMSO)): 46.7%
- effect on apoptosis, in words [7]: not affected
- % apoptosis ([8]; Roli 0.2 μM, BC11-4 0 μM): 12.7%
- % apoptosis ([8]; Roli 2.0 μM, BC11-4 0 μM): 24.9%
- % apoptosis ([8]; Roli 20 μM, BC11-4 0 μM): 33.8%

- IC50 (PDE10A1 [10]): 0.2 µM
- IC50 (human PDE11A4): 0.05 µM
Compound: C=CCSc1nnc2n(-c3ccccc3)c(=O)c3c(C)c(C)sc3n12 [BC11-8]
- % apoptosis ([9]; BC11-8 0.1 μM, Roli 0 μM): 6.31%
- % apoptosis ([9]; BC11-8 0.1 μM, Roli 0.2 μM): 11.7%
- % apoptosis ([9]; BC11-8 0.1 μM, Roli 2.0 μM): 22.7%
- % apoptosis ([9]; BC11-8 0.1 μM, Roli 20 μM): 28.2%
- % apoptosis ([9]; BC11-8 1.0 μM, Roli 0 μM): 7.63%
- % apoptosis ([9]; BC11-8 1.0 μM, Roli 0.2 μM): 13.1%
- % apoptosis ([9]; BC11-8 1.0 μM, Roli 2.0 μM): 19.5%
- % apoptosis ([9]; BC11-8 1.0 μM, Roli 20 μM): 26.7%
- % apoptosis ([9]; BC11-8 10.0 μM, Roli 0 μM): 21.8%
- % apoptosis ([9]; BC11-8 10.0 μM, Roli 0.2 μM): 28.5%
- % apoptosis ([9]; BC11-8 10.0 μM, Roli 2.0 μM): 40.1%
- % apoptosis ([9]; BC11-8 10.0 μM, Roli 20 μM): 41.5%
- effect on apoptosis, in words ([9]; third patient, additive with rolipram): increased apoptosis
- Apoptosis (%) REC-1 Cells (B cell leukemia) (REC-1 cells; 40 μM): 66.2%
- effect on apoptosis, in words (REC-1 cells): increased apoptosis
- % apoptosis of normal T cells (normal T cells; compound 20 μM alone (DMSO)): 10.3%
- % apoptosis of normal T cells (normal T cells; [11]): 14.7%
- cell viability of normal T cells (normal T cells): did not affect cell viability
- Apoptosis (%) JVM-2 Cells (B cell leukemia) (JVM-2 cells; 40 μM): 28.8%
- effect on apoptosis, in words (JVM-2 cells): increased apoptosis
- % apoptosis ([7]; compound): 63.3%
- % apoptosis ([7]; compound alone (DMSO)): 60.1%
- effect on apoptosis, in words [7]: increase in apoptosis

Compound: O=c1nc2sc3ccccc3n2c(=O)n1-c1ccccc1 [BC11-19]
- cAMP levels in H295R cells (H295R cells [1]): consistently elevates
- cortisol production by H295R cells (H295R cells [5]): consistently elevates
